# Test results taken from patent publication US9636323B2, “Method of treating cancer that overexpresses TopBP1” (Baylor College of Medicine, priority 2014, dated 2017).
# Assays:
# [1] = tested on: TopBP1-BRCT7/8 binding to pS1159 peptide; experiment: pS1159 peptide binding assay (streptavidin Sepharose pulldown); settings: FIG. 1f
# Experimental: The GST fusion proteins in Escherichia coli strain BL21 were induced by 0.1 mM IPTG (isopropyl-β-D-thiogalactopyranoside) and purified according to the standard protocol. The GST portion on GST-TopBP1-BRCT7/8 was excised by Pre-Scission protease (Pharmacia). Two purified (>98%) biotin conjugated peptides were synthesized from Sigma Genosys. The peptide sequence is derived from the surrounding sequence of TopBP1 S1159: pP, Btn-[…]pSer^1159NLQWPS and nP, Btn-[…]. Purified TopBP1-BRCT7/8 (2 μg) was incubated with compounds in NETN-A buffer (50 mM NaCl, 1 mM EDTA, 20 mM Tris, 0.5% NP-40) at 4° C. for 3 h with constant rotation. Then 2 μg of purified pP or nP peptides were added and rotated for another 3 h at 4° C. The biotin-conjugated peptides were then pulled down with streptavidin-Sepharose (Amersham). The beads were washed six times with NETN-B buffer (100 mM NaCl, 1 mM EDTA, 0.2 mM phenylmethylsulfonyl fluoride) and then subjected to sodium dodecyl sulfate-polyacrylamide gel electrophoresis (SDS-PAGE) and analyzed by Western blotting with anti-TopBP1 antibody (1:1000, BL893, Bethyl Laboratories).
# [2] = tested on: TopBP1-BRCT7/8 binding to p53(DBD); experiment: GST-p53(DBD) pulldown assay; settings: FIG. 1g
# Experimental: Purified TopBP1-BRCT7/8 (2 μg) was incubated with compounds in NETN-A buffer as above at 4° C. for 3 h with constant rotation. Then purified GST-p53-DBD or GST (2 μg) were added and rotated for another 3 h at 4° C. GST-p53-DBD was then pulled down with glutathione-Sepharose. The beads were washed six times with NETN-B buffer and then subjected to SDS-PAGE analysis.
smiles,measurement,setting,value
"O=C(O)CN(CC(=O)O)Cc1cc2c(cc1O)Oc1cc(O)c(CN(CC(=O)O)CC(=O)O)cc1C21OC(=O)c2ccccc21 [Calcein, calcein]",concentrations at which TopBP1/pS1159 interaction was blocked,[1],submicromolar
same,effective amount of Calcein that needs to be present,[1]; pS1159 peptide binding,60 to 300 nM
same,concentrations at which TopBP1/p53(DBD) interaction was blocked,[2],submicromolar
same,effective amount of Calcein that needs to be present,[2]; GST-p53(DBD) pulldown,60 to 300 nM
